The numbers were not newly measured in US9272049B2, “Methods of stimulating fat mobilization using a polymer conjugated polyphenol” (NANOPHARMACEUTICALS LLC, priority 2005, dated 2016), which cites them from elsewhere.

For data set [1], the system named is insulin-sensitive mammalian cell lines. The note with it: several insulin-sensitive mammalian cell lines.
The subject of data set [2] is C. elegans.

SMILES strings stand for the structures.

In the case of `Oc1ccc(C=Cc2cc(O)cc(O)c2)cc1` [Resveratrol], the fat accumulation result in data set [1] and in data set [2] was “reduce fat accumulation” each time.
